Data on 16 compounds can be found in ChEMBL document CHEMBL3046720, “Molecular properties of fatty acids related to PPAR binding and metabolic diseases” (Med Chem Res, 2013).

As a reminder, the IC50 is the point on the concentration scale where inhibition reaches its midpoint. A lower IC50 goes with higher potency.

The target of test [1] is T1, Peroxisome proliferator-activated receptor delta (Homo sapiens, UniProt Q03181).
T1 sequence (Q03181 whole entry): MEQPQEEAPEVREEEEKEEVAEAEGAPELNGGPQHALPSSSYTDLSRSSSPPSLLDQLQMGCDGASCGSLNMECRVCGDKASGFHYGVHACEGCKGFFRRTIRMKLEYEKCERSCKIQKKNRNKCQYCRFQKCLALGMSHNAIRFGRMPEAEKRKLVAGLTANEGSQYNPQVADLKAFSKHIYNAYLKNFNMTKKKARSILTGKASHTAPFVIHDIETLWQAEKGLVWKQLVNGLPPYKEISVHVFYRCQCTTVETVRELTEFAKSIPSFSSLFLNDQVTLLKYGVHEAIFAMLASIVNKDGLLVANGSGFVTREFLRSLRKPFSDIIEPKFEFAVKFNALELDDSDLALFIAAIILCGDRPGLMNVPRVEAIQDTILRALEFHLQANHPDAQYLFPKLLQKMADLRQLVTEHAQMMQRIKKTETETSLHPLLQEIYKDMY
Kind of test: Displacement of [3H]GW2433 from Homo sapiens (human) PPARdelta receptor by scintillation proximity assay.

Test [2] concerns the target T2, Peroxisome proliferator-activated receptor alpha (Homo sapiens, UniProt Q07869).
T2 sequence (Q07869 whole entry): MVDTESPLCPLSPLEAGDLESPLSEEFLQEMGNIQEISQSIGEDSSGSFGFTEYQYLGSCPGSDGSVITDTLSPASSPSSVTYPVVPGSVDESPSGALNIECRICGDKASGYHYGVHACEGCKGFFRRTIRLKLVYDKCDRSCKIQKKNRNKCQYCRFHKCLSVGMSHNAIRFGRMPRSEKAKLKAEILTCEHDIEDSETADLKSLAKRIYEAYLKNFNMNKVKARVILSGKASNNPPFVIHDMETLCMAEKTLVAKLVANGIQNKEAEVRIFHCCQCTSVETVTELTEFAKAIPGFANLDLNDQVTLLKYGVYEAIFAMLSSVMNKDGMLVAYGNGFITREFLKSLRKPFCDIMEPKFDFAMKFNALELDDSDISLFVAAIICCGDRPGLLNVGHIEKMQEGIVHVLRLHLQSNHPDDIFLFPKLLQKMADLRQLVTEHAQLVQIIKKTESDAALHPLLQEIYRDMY
Kind of test: Displacement of [3H]GW2331 from Homo sapiens (human) PPARalpha receptor by scintillation proximity assay. (Loss of bound radioactivity is the signal in a displacement assay; it reports binding, not function.)

The target of test [3] is T3, Peroxisome proliferator-activated receptor gamma (Homo sapiens, UniProt P37231).
T3 sequence (P37231 whole entry): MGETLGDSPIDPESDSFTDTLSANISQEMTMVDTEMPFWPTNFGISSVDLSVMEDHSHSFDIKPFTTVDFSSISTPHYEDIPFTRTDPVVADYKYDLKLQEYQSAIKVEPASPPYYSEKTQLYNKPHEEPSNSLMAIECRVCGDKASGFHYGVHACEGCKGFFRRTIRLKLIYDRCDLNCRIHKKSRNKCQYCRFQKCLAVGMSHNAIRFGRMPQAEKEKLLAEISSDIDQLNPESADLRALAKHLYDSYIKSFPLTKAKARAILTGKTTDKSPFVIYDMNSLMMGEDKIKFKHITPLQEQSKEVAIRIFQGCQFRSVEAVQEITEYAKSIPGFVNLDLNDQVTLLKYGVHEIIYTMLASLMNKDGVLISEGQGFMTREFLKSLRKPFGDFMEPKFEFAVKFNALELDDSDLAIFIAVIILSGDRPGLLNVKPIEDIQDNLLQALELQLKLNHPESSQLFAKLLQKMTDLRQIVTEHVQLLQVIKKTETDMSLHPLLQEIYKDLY
The test is described as follows: Displacement of [3H]BRL49653 from Homo sapiens (human) PPARgamma receptor by scintillation proximity assay.

Turning to `CCCCCCCCCCCCCCCCCCCC(=O)O` [ARACHIDIC ACID], the half-inhibitory concentration (IC50) in test [1] and in test [2] was greater than 30 µM throughout.

For `CCCCC/C=C\C/C=C\C/C=C\C/C=C\CCCC(=O)O` [ARACHIDONIC ACID], the figures for the IC50 in test [1] and in test [3] were 3.1 µM and 1.6 µM, respectively.

As for `CCCCCCCCCCCCCCCCCCCCCC(=O)O` [BEHENIC ACID], the IC50 in test [1] and in test [2] was greater than 30 µM each time.

Consider `CCCCCCCCCC(=O)O` [DECANOIC ACID], for which the 50% inhibitory concentration (IC50) in test [1] is greater than 30 µM; in test [3], 30 µM; in test [2] it was greater than 30 µM.

Consider `CCCCC/C=C\C/C=C\C/C=C\CCCCCCC(=O)O` [DIHOMO-GAMMA-LINOLENIC ACID], for which the IC50 in test [1] came out at 4.3 µM; in test [3] it was 2.4 µM.

For `CCCCCCCCCCCC(=O)O` [DODECANOATE], the IC50 in test [1] and in test [2] was greater than 30 µM each time.

`CCCCCCCC/C=C\CCCCCCCCCCCC(=O)O` [ERUCIC ACID]: the IC50 in test [1] and in test [2] was greater than 30 µM throughout.

Compound `CCCCC/C=C\C/C=C\C/C=C\CCCCC(=O)O` [GAMOLENIC ACID] had an IC50 in test [1] of 0.75 µM.

Take `CC/C=C\C/C=C\C/C=C\C/C=C\C/C=C\CCCC(=O)O` [ICOSAPENT]: the IC50 in test [1] came out at 4 µM; in test [3], 1.6 µM.

Turning to `CCCCC/C=C\C/C=C\CCCCCCCC(=O)O` [LINOLEIC ACID], the figures for the IC50 in test [1] and in test [3] were 10 µM and 6.2 µM, respectively.

Take `CC/C=C\C/C=C\C/C=C\CCCCCCCC(=O)O` [LINOLENIC ACID]: the IC50 in test [1] came to 16 µM. That is a double-digit micromolar value.

As for `CCCCCCCCCCCCCC(=O)O` [MYRISTIC ACID], the results for the IC50 in test [3] and in test [2] were 21 µM and 5.4 µM, respectively.

With `CCCCCCCC/C=C\CCCCCCCC(=O)O` [OLEIC ACID], the half-inhibitory concentration (IC50) in test [1] came out at 5.3 µM; in test [3], 4.1 µM.

For `CCCCCCCCCCCCCCCC(=O)O` [PALMITIC ACID], the half-maximal inhibitory concentration (IC50) in test [2] was determined as 1.5 µM.

Turning to `CCCCCC/C=C\CCCCCCCC(=O)O` [PALMITOLEIC ACID], the IC50 in test [1] is 9.6 µM; in test [3] it was 6.4 µM.

The compound `CCCCCCCCCCCCCCCCCC(=O)O` [STEARIC ACID] gave an IC50 in test [2] of 1.1 µM.
